Reference: ChEMBL document CHEMBL1201862, “PubChem BioAssay data set” (2004)
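Assay format: 96-well plates, 48-hour exposure. Here, GI50 denotes the concentration required for 50% inhibition of growth.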 The source made the active and inactive calls. Cut-off read from the data, not from the text of the source: active = GI50 up to about 1.1 µM and inactive = higher.

How the values were obtained:
Test in all cases: inhibition of tumour cell growth, NCI panel, 48 h
EKVX = tested on: EKVX
COLO 205 = tested on: COLO 205
SN12C = tested on: SN12C
SR = tested on: SR
UO-31 = tested on: UO-31
NCI-H23 = tested on: NCI-H23
SK-OV-3 = tested on: SK-OV-3
A498 = tested on: A498
HCC 2998 = tested on: HCC 2998
NCI-H226 = tested on: NCI-H226
OVCAR-4 = tested on: OVCAR-4
SK-MEL-28 = tested on: SK-MEL-28
Hs-578T = tested on: Hs-578T
KM12 = tested on: KM12
OVCAR-5 = tested on: OVCAR-5
OVCAR-8 = tested on: OVCAR-8
UACC-62 = tested on: UACC-62
MDA-MB-231 = tested on: MDA-MB-231
NCI-H522 = tested on: NCI-H522
M14 = tested on: M14

Structure (SMILES) | GI50 (EKVX) | GI50 (COLO 205) | GI50 (SN12C) | GI50 (SR) | GI50 (UO-31) | GI50 (NCI-H23) | GI50 (SK-OV-3) | GI50 (A498) | GI50 (HCC 2998) | GI50 (NCI-H226) | GI50 (OVCAR-4) | GI50 (SK-MEL-28) | GI50 (Hs-578T) | GI50 (KM12) | GI50 (OVCAR-5) | GI50 (OVCAR-8) | GI50 (UACC-62) | GI50 (MDA-MB-231) | GI50 (NCI-H522) | GI50 (M14)
Cc1ccc(SC2=C(N(C)C)C(=O)c3ccccc3C2=O)cc1 | 6.71 µM (inactive) | 20.8 µM (inactive) | 4.92 µM (inactive) | 0.631 µM (active) | 10.1 µM (inactive) | 1.82 µM (inactive) | 10.7 µM (inactive) | 15.9 µM (inactive) | 14 µM (inactive) | 9.82 µM (inactive) | 4.06 µM (inactive) | 10.3 µM (inactive) | 4.85 µM (inactive) | 3.06 µM (inactive) | 12.9 µM (inactive) | 1.91 µM (inactive) | 4.35 µM (inactive) | 4.24 µM (inactive) | 1.22 µM (inactive) | 3.27 µM (inactive)
C/C(=N\NC(=S)NCCCNC(=S)N/N=C(\C)c1ccccn1)c1ccccn1 | 3.79 µM (inactive) | 1.8 µM (inactive) | 1.98 µM (inactive) | 0.968 µM (active) | 1.83 µM (inactive) | 7.33 µM (inactive) | 2.01 µM (inactive) | 4.97 µM (inactive) | 5.71 µM (inactive) | 6.92 µM (inactive) | 5.28 µM (inactive) | 4.99 µM (inactive) | > 47.6 µM (inactive) | 2.94 µM (inactive) | 7.94 µM (inactive) | 1.71 µM (inactive) | 2.66 µM (inactive) | 6.21 µM (inactive) | 1.37 µM (inactive) | 0.733 µM (active)
O=C(OCc1ccccc1)N(CCCCN(CCCNCc1ccccc1)C(=O)OCc1ccccc1)CCCNCc1ccccc1 | 1.49 µM (inactive) | 0.262 µM (active) | 0.834 µM (active) | 0.191 µM (active) | 1.38 µM (inactive) | 1.77 µM (inactive) | 14.5 µM (inactive) | 0.889 µM (active) | 0.462 µM (active) | 1.05 µM (active) | 1.66 µM (inactive) | 1.62 µM (inactive) | 1.31 µM (inactive) | 0.43 µM (active) | 1.63 µM (inactive) | 1.54 µM (inactive) | 0.881 µM (active) | 0.885 µM (active) | 0.647 µM (active) | 0.252 µM (active)
CCOC(=O)C(C#N)C1=CC(=O)C(=O)c2ccc(O)cc21 (stereo not drawn) | > 100 µM (inactive) | > 100 µM (inactive) | > 100 µM (inactive) | > 100 µM (inactive) | 30.5 µM (inactive) | 19.3 µM (inactive) | > 100 µM (inactive) | > 100 µM (inactive) | > 100 µM (inactive) | 41.2 µM (inactive) | 58.9 µM (inactive) | > 100 µM (inactive) | 17.2 µM (inactive) | > 100 µM (inactive) | > 100 µM (inactive) | 44.7 µM (inactive) | 17.1 µM (inactive) | 32.1 µM (inactive) | 26.9 µM (inactive) | 20.9 µM (inactive)
FC(F)(F)c1cccc(COCCN2CCN(Cc3cccc(C(F)(F)F)c3)CC2)c1 | 11.1 µM (inactive) | 15.7 µM (inactive) | 18.5 µM (inactive) | 23.4 µM (inactive) | 12.3 µM (inactive) | 17.9 µM (inactive) | 17.3 µM (inactive) | 14.9 µM (inactive) | 17 µM (inactive) | 17 µM (inactive) | 17.7 µM (inactive) | 17.8 µM (inactive) | 19.5 µM (inactive) | 18.1 µM (inactive) | 16.7 µM (inactive) | 18.7 µM (inactive) | 15.3 µM (inactive) | 19.3 µM (inactive) | 13 µM (inactive) | 30.1 µM (inactive)
CCOC(=O)/C(C(=S)NC)=C(/N)N1CCCC1 | > 100 µM (inactive) | > 100 µM (inactive) | > 100 µM (inactive) | > 100 µM (inactive) | 71.6 µM (inactive) | > 100 µM (inactive) | > 100 µM (inactive) | > 100 µM (inactive) | > 100 µM (inactive) | > 100 µM (inactive) | > 100 µM (inactive) | > 100 µM (inactive) | > 100 µM (inactive) | > 100 µM (inactive) | > 100 µM (inactive) | > 100 µM (inactive) | > 100 µM (inactive) | > 100 µM (inactive) | > 100 µM (inactive) | > 100 µM (inactive)
CCOC(=O)CCC(NC(=O)c1ccc(Oc2nc3ccccc3nc2-c2ccccc2)cc1)C(=O)OCC (stereo not drawn) | 57.9 µM (inactive) | > 100 µM (inactive) | 30.3 µM (inactive) | > 29.8 µM (inactive) | 34 µM (inactive) | 17.4 µM (inactive) | 27.9 µM (inactive) | > 50.1 µM (inactive) | > 100 µM (inactive) | 13.2 µM (inactive) | 6.55 µM (inactive) | 50.6 µM (inactive) | 7.08 µM (inactive) | 33.3 µM (inactive) | > 55 µM (inactive) | 3.55 µM (inactive) | 32.7 µM (inactive) | 10.6 µM (inactive) | 11.3 µM (inactive) | > 62.1 µM (inactive)
Cc1c(C(=O)O)n2c(S)nnc2c2ccccc12 | > 100 µM (inactive) | > 100 µM (inactive) | > 100 µM (inactive) | > 100 µM (inactive) | > 100 µM (inactive) | > 100 µM (inactive) | > 100 µM (inactive) | > 100 µM (inactive) | > 100 µM (inactive) | > 100 µM (inactive) | > 100 µM (inactive) | > 100 µM (inactive) | > 100 µM (inactive) | > 100 µM (inactive) | > 100 µM (inactive) | > 100 µM (inactive) | > 100 µM (inactive) | > 100 µM (inactive) | > 100 µM (inactive) | > 100 µM (inactive)
O=S1OC[C@H](CCCl)O1 (stereo partly drawn) | > 100 µM (inactive) | > 100 µM (inactive) | > 100 µM (inactive) | > 100 µM (inactive) | > 100 µM (inactive) | > 100 µM (inactive) | > 100 µM (inactive) | > 100 µM (inactive) | > 100 µM (inactive) | > 100 µM (inactive) | > 100 µM (inactive) | 69.5 µM (inactive) | > 100 µM (inactive) | 13.8 µM (inactive) | > 100 µM (inactive) | > 100 µM (inactive) | > 100 µM (inactive) | > 100 µM (inactive) | > 100 µM (inactive) | > 100 µM (inactive)
COC1/C=C/C(C)C(O)CC(O)/C=C/C(C)C(C(C)C(OC)C(C)CCC(=O)C(C)C(C/C=C/N(C)C=O)OC)OC(=O)/C=C/C=C(\C)CC(OC)CC2=CC(=O)O[C@@H](C(C)C(OC)C1)[C@H]2O (stereo partly drawn) | 0.0298 µM (active) | 0.00513 µM (active) | < 0.005 µM (active) | 0.00736 µM (active) | 0.00769 µM (active) | 0.011 µM (active) | < 0.005 µM (active) | < 0.005 µM (active) | < 0.005 µM (active) | < 0.005 µM (active) | 0.0267 µM (active) | 0.00588 µM (active) | 0.00879 µM (active) | < 0.005 µM (active) | 0.0103 µM (active) | < 0.005 µM (active) | 0.00665 µM (active) | < 0.005 µM (active) | < 0.005 µM (active) | < 0.005 µM (active)
Cc1cc(=O)oc2cc(SC(=O)N(C)C)ccc12 | 61 µM (inactive) | > 100 µM (inactive) | > 100 µM (inactive) | > 100 µM (inactive) | > 100 µM (inactive) | > 100 µM (inactive) | > 100 µM (inactive) | > 100 µM (inactive) | > 100 µM (inactive) | > 100 µM (inactive) | > 100 µM (inactive) | > 100 µM (inactive) | > 100 µM (inactive) | > 100 µM (inactive) | 77.8 µM (inactive) | > 100 µM (inactive) | 57.1 µM (inactive) | > 100 µM (inactive) | > 100 µM (inactive) | > 100 µM (inactive)
CC(C)=CC(O)C/C(C)=C/CC/C(C)=C/CCC1(C)C(CCCO)/C(=C(/C)C=O)CCC1(C)O (stereo not drawn) | 27.5 µM (inactive) | 32.7 µM (inactive) | 31.9 µM (inactive) | 37 µM (inactive) | 33.7 µM (inactive) | 20 µM (inactive) | 47.8 µM (inactive) | 34.2 µM (inactive) | 26.4 µM (inactive) | 74.3 µM (inactive) | 25.5 µM (inactive) | 29.6 µM (inactive) | 35.6 µM (inactive) | 22.2 µM (inactive) | > 100 µM (inactive) | 47 µM (inactive) | 35.9 µM (inactive) | 24.7 µM (inactive) | 39.7 µM (inactive) | 26.1 µM (inactive)
O=C(NC(O)(C(F)(F)F)C(F)(F)F)c1ccccc1 | > 100 µM (inactive) | > 100 µM (inactive) | > 100 µM (inactive) | > 100 µM (inactive) | > 100 µM (inactive) | > 100 µM (inactive) | > 100 µM (inactive) | > 100 µM (inactive) | > 100 µM (inactive) | 51.6 µM (inactive) | > 100 µM (inactive) | > 100 µM (inactive) | > 100 µM (inactive) | > 100 µM (inactive) | > 100 µM (inactive) | > 100 µM (inactive) | – | > 100 µM (inactive) | > 100 µM (inactive) | > 100 µM (inactive)
CN(C)/N=C1/CCC(C(F)(F)F)(C(F)(F)F)O1 | 36.9 µM (inactive) | 16.7 µM (inactive) | 27.8 µM (inactive) | 17.6 µM (inactive) | 28.4 µM (inactive) | 37.4 µM (inactive) | 38.3 µM (inactive) | 21.4 µM (inactive) | 30.6 µM (inactive) | 26.3 µM (inactive) | 47.6 µM (inactive) | 39.6 µM (inactive) | 39.2 µM (inactive) | 20.7 µM (inactive) | 58.1 µM (inactive) | – | 28.1 µM (inactive) | 25.4 µM (inactive) | 35.2 µM (inactive) | 25.1 µM (inactive)
